Assay results: patent publication US20090306149A1, “USE OF BIARYLCARBOXAMIES IN THE TREATMENT OF HEDGEHOG PATHWAY-RELATED DISORDERS” (priority 2006, published 2009)
pEC50, pIC50: −log10 of the molar value. Where two headings read alike, the source gives them in different places.

How the values were obtained:
[1] = tested on: gli-luciferase activity (Hh pathway) in TMHh12 cells; experiment: "IC50 shift" gli-luciferase reporter assay in TMHh12 cells with a small molecule Smo agonist; format: cell-based, mouse; conditions: Mus musculus, TMHh12, TMHh12 cells
Experimental: (§1) TM3 cells (mouse) transfected with a new proprietary reporter construct (pTA-8xGli-Luc). The pTA-8xGli-Luc reporter produces approx. 4 fold more luciferase activity than classical 8xGli-LUC. A highly responsive stable clone has been selected (TMHh12) with >10-fold signal/noise ratio and <10% CV in 384 well format.
“IC50 shift” assays in TMHh12 cells. IC50 for antagonism of gli-luciferase activity was tested in the presence of increasing concentrations of a small molecule agonist which binds to Smo with 1 nM affinity and activates the Hh pathway.
Table 1 lists the IC50 of antagonists determined in the presence of different (1 nM and 25 nM) concentrations of a small agonist of Smoothened.

[2] = biological target: Smoothened (Homo sapiens, UniProt Q99835); experiment: Smo binding assay, displacement of a small molecule agonist of Smoothened, filter binding format
Description: A Smo binding assay was developed using radio-labeled smoothened agonist for compound competition.
Table 1, infra; lists the IC50 for displacement of a small molecule agonist of Smoothened determined in a filter binding format.

[3] = tested on: Shh-mediated pathway activation (Gli-luciferase activity of TMHh12 cells); experiment: Gli-Luc reporter assay for Hh pathway inhibition in TMHh12 cells in the presence of Shh protein; format: cell-based; conditions: Mus musculus, read-out: EC50 to block Shh-mediated pathway activation
Experimental: as §1
Gli-Luc Reporter Assay for Hh Pathway Inhibition
Gli-luciferase activity of TMHh12 cells was determined in the presence of Shh protein.

[4] = 1 nM small molecule Smo agonist, read-out: Gli_luc (1 nM Smo agonist) IC50
[5] = 25 nM small molecule Smo agonist, read-out: Gli_luc (25 nM Smo agonist) IC50

Smoothened, sequence (Q99835 28-787): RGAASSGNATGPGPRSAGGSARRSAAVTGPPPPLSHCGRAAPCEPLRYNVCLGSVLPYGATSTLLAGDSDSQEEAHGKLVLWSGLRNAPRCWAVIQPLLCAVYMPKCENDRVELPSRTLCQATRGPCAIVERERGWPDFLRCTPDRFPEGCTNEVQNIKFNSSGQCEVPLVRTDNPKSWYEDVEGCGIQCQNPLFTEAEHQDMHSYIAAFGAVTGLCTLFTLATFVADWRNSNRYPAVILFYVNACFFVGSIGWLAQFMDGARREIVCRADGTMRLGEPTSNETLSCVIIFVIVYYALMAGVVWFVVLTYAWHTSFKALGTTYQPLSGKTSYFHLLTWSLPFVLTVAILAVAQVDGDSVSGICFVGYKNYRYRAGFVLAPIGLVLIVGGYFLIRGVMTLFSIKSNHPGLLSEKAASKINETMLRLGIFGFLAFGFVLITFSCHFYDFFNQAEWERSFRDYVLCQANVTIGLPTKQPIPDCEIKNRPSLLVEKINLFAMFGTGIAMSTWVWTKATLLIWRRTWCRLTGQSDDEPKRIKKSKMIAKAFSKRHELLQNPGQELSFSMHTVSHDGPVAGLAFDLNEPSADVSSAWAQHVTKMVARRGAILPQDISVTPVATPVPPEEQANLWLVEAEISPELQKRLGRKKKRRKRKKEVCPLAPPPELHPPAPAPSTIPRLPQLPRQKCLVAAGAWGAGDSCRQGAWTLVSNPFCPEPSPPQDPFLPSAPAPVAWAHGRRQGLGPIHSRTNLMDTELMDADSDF

Structure (SMILES) | pIC50 [1, 4] | pIC50 [1, 5] | pIC50 [2] | pEC50 [3]
Cc1cccc(C(=O)Nc2ccc3c(c2)CC(NCc2cc4ccccc4o2)C3)c1-c1ccc(C(F)(F)F)cc1 (stereo not drawn) [Example 41] | 7.09 | 6.21 | 8.52 | –
Cc1cccc(C(=O)Nc2ccc3c(c2)CC(NCC2CCCCC2)C3)c1-c1ccc(C(F)(F)F)cc1 (stereo not drawn) [Example 50] | 6.05 | 4.93 | 6.21 | –
Cc1cccc(C(=O)Nc2ccc3c(c2)C[C@@H](NCc2ccco2)C3)c1-c1ccc(C(F)(F)F)cc1 [Example 11] | > 8.30 | 6.43 | 7.85 | –
Cc1cccc(C(=O)Nc2ccc3c(c2)C[C@@H](NCc2cccs2)C3)c1-c1ccc(C(F)(F)F)cc1 [Example 7] | > 8.30 | 6.85 | 7.85 | –
Cc1cccc(C(=O)Nc2ccc3c(c2)C[C@@H](NCc2ccc4c(c2)OC(F)(F)O4)C3)c1-c1ccc(C(F)(F)F)cc1 [Example 25] | 6.39 | 5.60 | 7.05 | –
Cc1csc(CN[C@H]2Cc3ccc(NC(=O)c4cccc(C)c4-c4ccc(C(F)(F)F)cc4)cc3C2)n1 [Example 5, 6-Methyl-4′-trifluoromethyl-biphenyl-2-carboxylic acid {(S)-2-[(4-methyl-thiazol-2-ylmethyl)-amino]-indan-5-yl}-amide] | > 8.30 | 6.86 | 8.52 | –
COC(=O)N1CCC(CNC2Cc3ccc(NC(=O)c4cccc(C)c4-c4ccc(C(F)(F)F)cc4)cc3C2)CC1 (stereo not drawn) [Example 51] | 5.15 | 4.95 | 4.86 | –
COc1ccc(CN[C@H]2Cc3ccc(NC(=O)c4cccc(C)c4-c4ccc(C(F)(F)F)cc4)cc3C2)cc1 [Example 23] | 6.46 | 5.52 | 7.03 | –
COC(=O)NC(CNC1Cc2ccc(NC(=O)c3cccc(C)c3-c3ccc(C(F)(F)F)cc3)cc2C1)Cc1ccccc1 (stereo not drawn) [Example 49] | 6.65 | 5.57 | 6.93 | –
CC(=O)Nc1ccc(CN[C@H]2Cc3ccc(NC(=O)c4cccc(C)c4-c4ccc(C(F)(F)F)cc4)cc3C2)cc1 [Example 22] | 6.34 | 5.49 | 6.35 | –
COc1ccc(CN[C@H]2Cc3ccc(NC(=O)c4cccc(C)c4-c4ccc(C(F)(F)F)cc4)cc3C2)cn1 [Example 32] | 6.58 | 5.54 | 6.89 | –
Cc1cccc(C(=O)Nc2ccc3c(c2)C[C@@H](N(C)Cc2ccccn2)C3)c1-c1ccc(C(F)(F)F)cc1 [Example 38] | 5.76 | 4.88 | 5.20 | –
Cc1cccc(C(=O)Nc2ccc3c(c2)CC(NCc2nccn2C)C3)c1-c1ccc(C(F)(F)F)cc1 (stereo not drawn) [Example 40] | 6.84 | 5.72 | 6.35 | –
Cc1cccc(C(=O)Nc2ccc3c(c2)C[C@@H](NCc2ccc(Cl)o2)C3)c1-c1ccc(C(F)(F)F)cc1 [Example 14] | > 8.30 | 7.43 | 9.00 | –
Cc1cccc(C(=O)Nc2ccc3c(c2)C[C@@H](NCc2cccn2C)C3)c1-c1ccc(C(F)(F)F)cc1 [Example 15] | > 8.30 | 6.32 | 7.74 | –
Cc1cccc(C(=O)Nc2ccc3c(c2)C[C@@H](NCc2ccncc2)C3)c1-c1ccc(C(F)(F)F)cc1 [Example 20] | 7.03 | 6.02 | 6.82 | –
Cc1ccc(CN[C@H]2Cc3ccc(NC(=O)c4cccc(C)c4-c4ccc(C(F)(F)F)cc4)cc3C2)o1 [Example 12] | > 8.30 | 6.85 | 8.40 | –
Cc1cccc(C(=O)Nc2ccc3c(c2)C[C@@H](NCc2ccccn2)C3)c1-c1ccc(C(F)(F)F)cc1 [Example 6, 6-Methyl-4′-trifluoromethyl-biphenyl-2-carboxylic acid {(S)-2-[(pyridin-2-ylmethyl)-amino]-indan-5-yl}-amide] | 7.72 | 6.55 | 7.82 | 8.03
O=C(Nc1ccc2c(c1)CC(NCCc1ccccc1)C2)c1ccccc1-c1ccc(C(F)(F)F)cc1 (stereo not drawn) [Example 53] | 6.58 | 5.75 | 5.10 | –

The next lines start with the values.

pIC50 [1, 4] | pIC50 [1, 5] | pIC50 [2] | pEC50 [3] | Structure (SMILES)
6.78 | 5.38 | 6.57 | – | O=C(Nc1ccc2c(c1)CC(NCc1ccccc1)C2)c1ccccc1-c1ccc(C(F)(F)F)cc1 (stereo not drawn) [Example 56]
4.88 | 4.63 | 5.44 | – | O=C(Nc1ccc2c(c1)CC(NCc1ncc[nH]1)C2)c1cccc(C(F)(F)F)c1-c1ccc(C(F)(F)F)cc1 (stereo not drawn) [Example 60]
5.68 | 4.92 | 6.52 | – | Cc1cccc(C(=O)Nc2ccc3c(c2)CC(NCc2c[nH]c4ccccc24)C3)c1-c1ccc(C(F)(F)F)cc1 (stereo not drawn) [Example 61]
6.61 | 5.00 | 6.23 | – | Cc1cccc(C(=O)Nc2ccc3c(c2)CC(NCc2cccnc2)C3)c1-c1ccc(C(F)(F)F)cc1 (stereo not drawn) [Example 66]
6.85 | 5.38 | 6.31 | – | Cc1cccc(C(=O)Nc2ccc3c(c2)CC(NCc2ccncc2)C3)c1-c1ccc(C(F)(F)F)cc1 (stereo not drawn) [Example 67]
5.45 | – | 5.45 | – | O=C(Nc1ccc2c(c1)CCC(NS(=O)(=O)c1ccccc1F)CC2)c1ccccc1-c1ccc(C(F)(F)F)cc1 (stereo not drawn) [Example 104]
5.51 | 4.76 | 7.55 | – | Cc1cccc(C(=O)Nc2ccc3c(c2)CC(NCc2nc4ccccc4n2C)C3)c1-c1ccc(C(F)(F)F)cc1 (stereo not drawn) [Example 57]
6.19 | 5.00 | 5.37 | – | CCCNC1Cc2ccc(NC(=O)c3cccc(C)c3-c3ccc(C(F)(F)F)cc3)cc2C1 (stereo not drawn) [Example 58]
7.00 | 5.65 | 6.03 | – | Cc1ccc(C(=O)Nc2ccc3c(c2)C[C@H](NCc2ccccn2)C3)c(-c2ccccc2)c1 [Example 73]
5.99 | 5.89 | 7.22 | – | CS(=O)(=O)NC1Cc2ccc(NC(=O)c3cccc(F)c3-c3ccc(C(F)(F)F)cc3)cc2C1 (stereo not drawn) [Example 92]
6.85 | 5.79 | 6.99 | – | Cc1cccc(C(=O)Nc2ccc3c(c2)CC(NCc2ccco2)C3)c1-c1ccc(C(F)(F)F)cc1 (stereo not drawn) [Example 62]
6.08 | 4.69 | 6.47 | – | Cc1cccc(C(=O)Nc2ccc3c(c2)CCC(NS(=O)(=O)c2cccs2)CC3)c1-c1ccc(C(F)(F)F)cc1 (stereo not drawn) [Example 105]
6.15 | 5.35 | 6.06 | – | CCOC(=O)NC1CCc2ccc(NC(=O)c3cccc(C)c3-c3ccc(C(F)(F)F)cc3)cc2CC1 (stereo not drawn) [Example 84]
5.06 | 5.17 | 4.78 | – | Cc1ccc(-c2ccc(C(F)(F)F)cc2)c(C(=O)Nc2ccc3c(c2)CC(NCc2ccccn2)C3)c1 (stereo not drawn) [Example 54]
5.60 | 4.90 | 6.21 | – | Cc1cccc(C(=O)Nc2ccc3c(c2)CCC(NCc2ccccc2)CC3)c1-c1ccc(Cl)cc1 (stereo not drawn) [Example 69]
6.86 | 5.31 | 6.44 | – | Cc1cccc(C(=O)Nc2ccc3c(c2)CCC(NCc2ccccn2)CC3)c1-c1ccc(C(F)(F)F)cc1 (stereo not drawn) [Example 68]
